Test system: rabbit

[Mg+2].[OH-].[OH-] [Mg(OH)2, magnesium hydroxide] was tested, and the Toxicity or discomfort (rabbit model, high-concentration suspension diluted to 400 HU) was “without observing obvious toxicity or discomfort” and the “Differentiation from iodinated intravascular contrast, two-material decomposition” value (rabbit, dual energy CT) was “without interfering signal from the intravascular iodinated contrast material”.
